Data from ChEMBL document CHEMBL4321854, “Discovery of a First-in-Class Mitogen-Activated Protein Kinase Kinase 1/2 Degrader” (J Med Chem, 2019).
Calls of active or inactive are those of the source. No cut-off for these calls is given here.

Tests used:
[1] = biological target: T1, von Hippel-Lindau disease tumor suppressor/Dual specificity mitogen-activated protein kinase kinase 2 (Homo sapiens) (UniProt P36507+P40337); assay: Protac activity against VHL/MEK2 in human HT-29 cells harboring with BRAF V600E variant assessed as degradation of MEK2 by measuring MEK2 protein level up to 1 uM after 24 hrs by Western blot analysis; assay type: cell-based
T1 sequence (P36507 whole entry, looked up): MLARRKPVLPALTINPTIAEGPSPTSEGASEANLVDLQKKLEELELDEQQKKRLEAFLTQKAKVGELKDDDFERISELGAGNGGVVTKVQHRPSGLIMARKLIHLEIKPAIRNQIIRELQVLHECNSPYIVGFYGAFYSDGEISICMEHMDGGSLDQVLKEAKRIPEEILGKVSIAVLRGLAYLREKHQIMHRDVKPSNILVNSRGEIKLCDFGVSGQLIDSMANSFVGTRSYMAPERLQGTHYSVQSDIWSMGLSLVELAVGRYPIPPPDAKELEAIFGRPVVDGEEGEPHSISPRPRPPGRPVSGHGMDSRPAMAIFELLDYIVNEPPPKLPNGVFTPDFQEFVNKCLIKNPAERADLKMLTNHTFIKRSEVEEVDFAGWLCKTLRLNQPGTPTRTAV
T1 sequence (P40337 whole entry, looked up): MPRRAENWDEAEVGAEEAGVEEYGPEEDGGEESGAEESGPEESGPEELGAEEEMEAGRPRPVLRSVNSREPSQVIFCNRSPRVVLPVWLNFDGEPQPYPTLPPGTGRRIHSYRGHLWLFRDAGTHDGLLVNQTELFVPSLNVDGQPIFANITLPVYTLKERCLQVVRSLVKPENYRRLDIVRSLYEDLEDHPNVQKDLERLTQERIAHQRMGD

[2] = biological target: T1, von Hippel-Lindau disease tumor suppressor/Dual specificity mitogen-activated protein kinase kinase 2 (Homo sapiens); assay: Protac activity against VHL/MEK2 in human SK-MEL-28 cells harboring with BRAF V600E variant assessed as degradation of MEK2 by measuring MEK2 protein level up to 1 uM after 24 hrs by Western blot analysis; assay type: cell-based
HT-29 [3] = assay: Antiproliferative activity against human HT-29 cells assessed as reduction in cell growth after 3 days by MTT assay; assay type: functional
SK-MEL-28 [4] = assay: Antiproliferative activity against human SK-MEL-28 cells assessed as reduction in cell growth after 3 days by MTT assay; assay type: functional
COLO 205 = assay: Antiproliferative activity against human COLO205 cells assessed as reduction in cell growth after 3 days by WST8 assay; assay type: functional
UACC-257 = assay: Antiproliferative activity against human UACC257 cells assessed as reduction in cell growth after 3 days by MTT assay; assay type: functional
HT-29 [5] = assay: Inhibition of colony formation in human HT-29 cells at 10 to 100 nM supplemented with fresh medium containing compound every 3 days for 14 days by crystal violet staining based assay; assay type: functional, cell-based
SK-MEL-28 [6] = assay: Inhibition of colony formation in human SK-MEL-28 cells at 10 to 100 nM supplemented with fresh medium containing compound every 3 days for 14 days by crystal violet staining based assay; assay type: functional, cell-based
[7] = biological target: Protein cereblon/Dual specificity mitogen-activated protein kinase kinase 1 (Homo sapiens) (UniProt Q02750+Q96SW2); assay: Protac activity against CRBN/MEK1 in human HT-29 cells harboring BRAF V600E variant assessed as degradation of MEK1 at 0.3 to 3 uM after 24 hrs by Western blot analysis; assay type: cell-based
Sequence of Protein cereblon/Dual specificity mitogen-activated protein kinase kinase 1 (Homo sapiens) (Q02750 whole entry, looked up): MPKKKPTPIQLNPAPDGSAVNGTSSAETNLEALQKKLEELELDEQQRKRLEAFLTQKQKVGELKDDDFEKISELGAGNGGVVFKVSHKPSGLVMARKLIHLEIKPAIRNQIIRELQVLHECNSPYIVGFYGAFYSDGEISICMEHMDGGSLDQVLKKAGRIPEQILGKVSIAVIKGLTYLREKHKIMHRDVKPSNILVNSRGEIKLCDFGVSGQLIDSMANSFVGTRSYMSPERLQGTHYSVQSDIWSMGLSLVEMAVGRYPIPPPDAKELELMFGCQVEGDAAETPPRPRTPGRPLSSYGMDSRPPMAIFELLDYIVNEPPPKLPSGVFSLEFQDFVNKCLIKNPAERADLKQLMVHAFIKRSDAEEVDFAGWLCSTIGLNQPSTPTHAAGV
Sequence of Protein cereblon/Dual specificity mitogen-activated protein kinase kinase 1 (Homo sapiens) (Q96SW2 whole entry, looked up): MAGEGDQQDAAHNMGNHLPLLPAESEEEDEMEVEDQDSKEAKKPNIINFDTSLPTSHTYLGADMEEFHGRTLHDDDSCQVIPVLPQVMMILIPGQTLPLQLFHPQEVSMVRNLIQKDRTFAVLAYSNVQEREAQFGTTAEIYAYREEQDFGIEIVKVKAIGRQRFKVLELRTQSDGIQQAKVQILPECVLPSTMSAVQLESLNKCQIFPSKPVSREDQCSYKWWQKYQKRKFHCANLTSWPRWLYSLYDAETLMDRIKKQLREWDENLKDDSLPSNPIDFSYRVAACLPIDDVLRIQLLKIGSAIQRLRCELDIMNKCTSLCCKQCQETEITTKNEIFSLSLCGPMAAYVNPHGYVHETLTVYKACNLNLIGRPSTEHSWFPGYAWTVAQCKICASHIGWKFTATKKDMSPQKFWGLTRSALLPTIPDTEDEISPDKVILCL

[8] = biological target: Protein cereblon/Dual specificity mitogen-activated protein kinase kinase 2 (Homo sapiens) (UniProt P36507+Q96SW2); assay: Protac activity against CRBN/MEK2 in human HT-29 cells harboring BRAF V600E variant assessed as degradation of MEK2 at 0.3 to 3 uM after 24 hrs by Western blot analysis; assay type: cell-based
Sequence of Protein cereblon/Dual specificity mitogen-activated protein kinase kinase 2 (Homo sapiens) (P36507 whole entry, looked up): as the sequence (P36507 whole entry, looked up) above
Sequence of Protein cereblon/Dual specificity mitogen-activated protein kinase kinase 2 (Homo sapiens) (Q96SW2 whole entry, looked up): as the sequence (Q96SW2 whole entry, looked up) above

[9] = biological target: T2, von Hippel-Lindau disease tumor suppressor/Dual specificity mitogen-activated protein kinase kinase 1 (Homo sapiens) (UniProt Q02750+P40337); assay: Protac activity against VHL/MEK1 in human HT-29 cells harboring BRAF V600E variant assessed as degradation of MEK1 at 0.3 to 3 uM after 24 hrs by Western blot analysis; assay type: cell-based
T2 sequence (P40337 whole entry, looked up): as the sequence (P40337 whole entry, looked up) above
T2 sequence (Q02750 whole entry, looked up): as the sequence (Q02750 whole entry, looked up) above

[10] = biological target: T1, von Hippel-Lindau disease tumor suppressor/Dual specificity mitogen-activated protein kinase kinase 2 (Homo sapiens); assay: Protac activity against VHL/MEK2 in human HT-29 cells harboring BRAF V600E variant assessed as degradation of MEK2 at 0.3 to 3 uM after 24 hrs by Western blot analysis; assay type: cell-based
[11] = biological target: Dual specificity mitogen-activated protein kinase kinase 1 (Homo sapiens, UniProt Q02750); assay: Inhibition of recombinant full length human His-tagged MEK1 expressed in baculovirus expression system using ERK K52R dead variant as substrate preincubated for 20 mins followed by incubation with 33P-ATP addition for 2 hrs by hotspot kinase assay
Sequence of Dual specificity mitogen-activated protein kinase kinase 1 (Q02750 whole entry): as the sequence (Q02750 whole entry, looked up) above

[12] = biological target: Dual specificity mitogen-activated protein kinase kinase 2 (Homo sapiens, UniProt P36507); assay: Inhibition of recombinant full length human His-tagged MEK2 expressed in baculovirus expression system using ERK K52R dead variant as substrate preincubated for 20 mins followed by incubation with 33P-ATP for 2 hrs by hotspot kinase assay
Sequence of Dual specificity mitogen-activated protein kinase kinase 2 (P36507 whole entry): as the sequence (P36507 whole entry, looked up) above

[13] = biological target: T2, von Hippel-Lindau disease tumor suppressor/Dual specificity mitogen-activated protein kinase kinase 1 (Homo sapiens); assay: Protac activity against VHL/MEK1 in human HT-29 cells harboring with BRAF V600E variant assessed as degradation of MEK1 by measuring reduction in MEK1 protein level at 0.1 uM after 10 hrs by LC-MS based Volcano plot analysis; assay type: cell-based
[14] = biological target: T1, von Hippel-Lindau disease tumor suppressor/Dual specificity mitogen-activated protein kinase kinase 2 (Homo sapiens); assay: Protac activity against VHL/MEK2 in human HT-29 cells harboring with BRAF V600E variant assessed as degradation of MEK2 by measuring reduction in MEK2 protein level at 0.1 uM after 10 hrs by LC-MS based Volcano plot analysis; assay type: cell-based

SMILES: O=C(NOC[C@H](O)CO)c1ccc(F)c(F)c1Nc1ccc(I)cc1F [MIRDAMETINIB]
- Activity [1]: inactive
- Activity [2]: inactive
- GI50 (HT-29 [3]; HT-29, 72 h): 3.1 nM
- GI50 (SK-MEL-28 [4]; SK-MEL-28, 72 h): 2.9 nM
- GI50 (COLO 205; COLO 205, 72 h): 0.2 to 4.2 nM
- GI50 (UACC-257; UACC-257, 72 h): 0.2 to 4.2 nM
- inhibition (HT-29 [5]): Active
- inhibition (SK-MEL-28 [6]): Active

SMILES: O=C1CCC(N2C(=O)c3cccc(NCCNCCCONC(=O)c4ccc(F)c(F)c4Nc4ccc(I)cc4F)c3C2=O)C(=O)N1 (stereo not given)
- Activity [7]: inactive
- Activity [8]: inactive

SMILES: O=C1CCC(N2C(=O)c3cccc(NCCOCCNCCCONC(=O)c4ccc(F)c(F)c4Nc4ccc(I)cc4F)c3C2=O)C(=O)N1 (stereo not given)
- Activity [7]: inactive
- Activity [8]: inactive

SMILES: Cc1ncsc1-c1ccc(CNC(=O)[C@@H]2C[C@@H](O)CN2C(=O)[C@@H](NC(=O)CCCCCCNCCCONC(=O)c2ccc(F)c(F)c2Nc2ccc(I)cc2F)C(C)(C)C)cc1
- Activity [9]: Active
- Activity [10]: Active

SMILES: Cc1ncsc1-c1ccc(CNC(=O)[C@@H]2C[C@@H](O)CN2C(=O)[C@@H](NC(=O)CCCCCCCCCCNCCCONC(=O)c2ccc(F)c(F)c2Nc2ccc(I)cc2F)C(C)(C)C)cc1
- Activity [9]: Active
- Activity [10]: Active

SMILES: Cc1ncsc1-c1ccc([C@H](C)NC(=O)[C@H]2C[C@H](O)CN2C(=O)[C@@H](NC(=O)CCCCCCCCCCNCCCONC(=O)c2ccc(F)c(F)c2Nc2ccc(I)cc2F)C(C)(C)C)cc1
- IC50 [11]: 1600 nM
- IC50 [12]: 1500 nM
- Activity [1]: inactive
- Activity [2]: inactive
- Activity [13]: inactive
- Activity [14]: inactive
- GI50 (HT-29 [3]): inactive
- GI50 (SK-MEL-28 [4]): inactive
- GI50 (COLO 205): inactive
- GI50 (UACC-257): inactive
- inhibition (HT-29 [5]): inactive
- inhibition (SK-MEL-28 [6]): inactive

SMILES: Cc1ncsc1-c1ccc(CNC(=O)[C@@H]2C[C@@H](O)CN2C(=O)[C@@H](NC(=O)COCCOCCOCCNCCCONC(=O)c2ccc(F)c(F)c2Nc2ccc(I)cc2F)C(C)(C)C)cc1
- Activity [9]: Active
- Activity [10]: Active
